Measured values from patent US11186605B2 (KYOWA HAKKO BIO CO., LTD., priority 2016, dated 2021).
Read-outs that look alike come from different tables or passages of the source.

Assays:
[1] = crystal powder, mean of three sites
Excerpt: Here, the “angle of repose” refers to an angle formed by a horizontal plane and a generating line of a cone formed with a powder when the powder is allowed to gently fall onto the horizontal plane through a kind of a funnel.
The angle of repose can be measured using Multi Tester MT-1001T (manufactured by Seishin Enterprise Co., Ltd.) according to the accompanying manual under the following conditions.
[Measurement Conditions for Angle of Repose]
(§1) Apparatus for use: multi-tester MT-1001T type (manufactured by Seishin Enterprise Co., Ltd.)
(§2) Vibration range: 0.7 mm to 0.8 mm
Specific example of method of measuring angle of repose: The crystal is piled on an repose angle table (component number: MT-1028) while dropped via a 1.18 mm sieve vibrated at a range of 0.7 mm to 0.8 mm. The repose angle table is rotated without giving vibration, angles are read at three sites, and an arithmetic mean thereof is determined to be the angle of repose.

[2] = crystal powder, after three impacts, mean of three sites
Excerpt: Here, the “angle of rupture” refers to an angle formed by a horizontal plane and a generating line of a cone which is formed when a certain impact is applied indirectly to a cone formed with a powder when the powder is allowed to gently fall onto the horizontal plane through a kind of a funnel.
The angle of rupture can be measured using Multi Tester MT-1001T (manufactured by Seishin Enterprise Co., Ltd.) according to the accompanying manual by the following method.
A weight attached to the bottom of a repose angle table unit (component number: MT-1028) is slowly lifted under a tapping table and allowed to fall after the measurement of the angle of repose. This operation is repeated three times. In the same manner as the method of measuring the angle of repose, angles are read at three sites, and the arithmetic mean thereof is determined to be the angle of rupture.

[3] = crystal powder, 400 taps at 1 tap/sec, 100 mL container, average of three
Protocol: Here, the “dense specific volume” refers to a value which is obtained by dividing a volume occupied by a powder by a mass when the powder is filled in a container, a certain impact is applied to the container, and then the mass of the powder is measured.
The dense specific volume can be measured, for example, using Multi Tester MT-1001T (manufactured by Seishin Enterprise Co., Ltd.) according to the accompanying manual under the following conditions based on the 17th revision, Pharmacopoeia of Japan.
[Measurement Conditions for Dense Specific Volume]
as §1, §2
Specific example of method of measuring dense specific volume: A 100 mL cylindrical container made of stainless steel equipped with an auxiliary cylinder is filled while the crystal is dropped via a 1.18 mm sieve vibrated at a range of 0.7 mm to 0.8 mm. […] The measurement is independently performed three times to determine an average value.

[4] = crystal powder, 1.18 mm sieve, 100 mL container, average of three
Protocol: Here, the “loose specific volume” refers to a value which is obtained by dividing a volume occupied by a powder by a mass when the powder is filled in a container and the mass of the powder is measured.
The loose specific volume can be measured using Multi Tester MT-1001T (manufactured by Seishin Enterprise Co., Ltd.) according to the accompanying manual under the following conditions based on the 17th revision, Pharmacopoeia of Japan.
[Measurement Conditions for Loose Specific Volume]
as §1, §2
Specific example of method of measuring loose specific volume: A 100 mL cylindrical container made of stainless steel is filled while the crystal is dropped via a 1.18 mm sieve vibrated at a range of 0.7 mm to 0.8 mm. Excess powder is carefully rubbed off from the top surface of the container, and the mass of the powder is measured by subtracting the mass of an empty measurement container measured in advance. The measurement is independently performed three times to determine an average value.

Row | Substance | Angle of repose [1] [degree] | Angle of rupture [2] [degree] | Dense specific volume [3] [mg/L] | Loose specific volume [4] [mg/L] | other results
1 | cytidine diphosphate choline |  |  |  |  | concentration of the cytidine diphosphate choline in filtrate (solubility) (ethanol concentration 50% by volume, 30° C.): 282000 µg/mL; concentration of the cytidine diphosphate choline in filtrate (solubility) (ethanol concentration 50% by volume, 35° C.): 286000 µg/mL; concentration of the cytidine diphosphate choline in filtrate (solubility) (ethanol concentration 50% by volume, 40° C.): 317000 µg/mL; concentration of the cytidine diphosphate choline in filtrate (solubility) (ethanol concentration 66% by volume, 30° C.): 27600 µg/mL; concentration of the cytidine diphosphate choline in filtrate (solubility) (ethanol concentration 66% by volume, 35° C.): 31600 µg/mL; concentration of the cytidine diphosphate choline in filtrate (solubility) (ethanol concentration 66% by volume, 40° C.): 54200 µg/mL; concentration of the cytidine diphosphate choline in filtrate (solubility) (ethanol concentration 71% by volume, 30° C.): 8490 µg/mL; concentration of the cytidine diphosphate choline in filtrate (solubility) (ethanol concentration 71% by volume, 35° C.): 9700 µg/mL; concentration of the cytidine diphosphate choline in filtrate (solubility) (ethanol concentration 71% by volume, 40° C.): 11100 µg/mL; concentration of the cytidine diphosphate choline in filtrate (solubility) (ethanol concentration 75% by volume, 30° C.): 3230 µg/mL; concentration of the cytidine diphosphate choline in filtrate (solubility) (ethanol concentration 75% by volume, 35° C.): 3650 µg/mL; concentration of the cytidine diphosphate choline in filtrate (solubility) (ethanol concentration 75% by volume, 40° C.): 4040 µg/mL; concentration of the cytidine diphosphate choline in filtrate (solubility) (ethanol concentration 78% by volume, 30° C.): 1400 µg/mL; concentration of the cytidine diphosphate choline in filtrate (solubility) (ethanol concentration 78% by volume, 35° C.): 1680 µg/mL; concentration of the cytidine diphosphate choline in filtrate (solubility) (ethanol concentration 78% by volume, 40° C.): 1690 µg/mL; concentration of the cytidine diphosphate choline in filtrate (solubility) (ethanol concentration 80% by volume, 30° C.): 760 µg/mL; concentration of the cytidine diphosphate choline in filtrate (solubility) (ethanol concentration 80% by volume, 35° C.): 840 µg/mL; concentration of the cytidine diphosphate choline in filtrate (solubility) (ethanol concentration 80% by volume, 40° C.): 920 µg/mL
2 | cytidine diphosphate choline [Comparative Example 1] | 49.6 | 40.1 | 1.49 | 2.33 | 
3 | cytidine diphosphate choline [Comparative Example 3] | 57.4 | 50.8 | 2.19 | 4.19 | 
4 | cytidine diphosphate choline [Comparative Example 4] | 48.7 | 46.4 | 2.93 | 5.74 | 
5 | cytidine diphosphate choline [Example 1] | 46.9 | 39.6 | 2.13 | 3.42 | 
6 | cytidine diphosphate choline [Example 2] | 47.2 | 38.7 | 1.82 | 2.55 | 
7 | cytidine diphosphate choline [Example 3] | 52.8 | 47.1 | 2.19 | 3.58 | 
8 | cytidine diphosphate choline [Example 4] | 43.4 | 41.6 | 1.55 | 2.00 | 
9 | cytidine diphosphate choline [Product of company A] | 56.6 | 48.7 | 1.67 | 2.81 | 
